Reference: patent US20230068020A1, “MACROLIDE COMPOUND AND ITS USE OF TREATMENT CHRONIC RESPIRATORY DISEASE” (priority 2020, published 2023)

Key:
Assay type in all cases: cell-based
BEAS-2B cell = test: Cell viability (LD10) in BEAS-2B IL-8 test; conditions: BEAS-2B cell viability
From the text: The lethal dose (LD10) is the dosage of a compound that reduces the cell viability by […], and is estimated from non-linear logistic regression.

[1] = tested on: IL-8 expression in BEAS-2B cell; test: LPS induced IL-8 release by BEAS-2B (ELISA); conditions: for Maximum Inhibition: IL-8 expression in BEAS-2B cells, LPS; for IC10: concentration inhibiting IL-8 production on BEAS-2B by 10%, LPS 20 μg/mL
Protocol: The inhibitory effect of compounds of Examples on the IL-8 expression in BEAS-2B cell was tested using the following method. BEAS-2B was purchased from ATCC (American Type Culture Collection, Manassas, Va.). Cells were maintained in growth medium (LHC-9) and cultured at 37° C. under 5% CO2. Compounds were dissolved in 0.1% DMSO. Erythromycin was used as a positive control.
For the assessment of the effect of compounds of Examples on IL-8 expression inhibition in BEAS-2B cell line, cells were plated in 24 well plate at a density of 100,000/mL, in a final volume of 1 mL of assay medium. Cells were incubated at 37° C., 5% CO2 for 1 day. After the incubation, compounds were added at day 2 and LPS was added at day 3. A compound source plate was prepared by triplicate five-point 10-fold or 2-fold serial dilutions in DMSO, beginning at 1 mM (final top concentration of compounds of Examples in the assay was 100 μM and the DMSO was 0.1%). The positive control consisted of cells treated with 100 μM erythromycin and negative control was consisted of 0.1% DMSO treated cells. LPS stock solution at 5 mg/mL was made by dissolving 10 mg of LPS powder into 2 mL of ddH2O and aliquoted to 100 μL per vial. Final concentration of LPS in the assay was […] by making 125-fold dilution of stock solution with medium.
Specific immunoreactivity for IL-8 in culture supernatants were measured by a commercially available ELISA kits (R&D Systems, Inc., Minneapolis, Minn.). Each sample was assayed in duplicates as recommended by the manufacture. The concentration of compounds of Examples inhibiting IL-8 production on BEAS-2B by 10% was estimated from a 4-parametric of the normalized dose response curve. (IC10)

THP-1 cell [2] = test: Differentiation of monocyte to macrophage in THP-1 cell line; conditions: Homo sapiens; for EC50: THP-1 differentiate to macrophage, PMA, 96 hrs incubation; for Emax: ratio of best effect of compound to that of erythromycin 100 uM, THP-1 differentiation, read-out: Maximal activation level
Protocol: The THP-1 cell line was purchased from ATCC (American Type Culture Collection, Manassas, Va.). Cells were maintained in growth medium (RPMI-1640) with supplemented with 10% heat inactivated bovine serum, 100× Glutamax medium and 0.05 mM β-Mercaptoethanol at 37° C. under 5% CO2. Compounds were dissolved in 0.1% DMSO. Erythromycin was used as a positive control.
For the assessment of the effect of compounds of the present invention on differentiation of monocyte to macrophage in THP-1 cell line, cells were collected and centrifuged at 900 rpm for 4 minutes. The cell density was adjusted to 2.5×10^5/mL. cell suspension of 400 μL was added to each well of 48-well plate following the plate layout. PMA 1 mg, a compound can induce monocyte differentiation, was dissolved in 10 mL DMSO to form 100 μg/mL solution and aliquote it into 1 mL per vial. 1 mL solution can be further aliquoted into 10 μL per vial and stored the aliquots at −20° C. Make 10-fold dilution of PMA with DMSO and then 500-fold dilution with complete medium. 50 μL solution were then added to each well of 48-well plate following the plate layout. Erythromycin and compounds of examples at stock concentration of 10 mM was serially diluted at 10-fold in DMSO. 50 μL solution was added to each well of 48-well plate following the plate layout. After 96 hrs incubation at 37° C., 5% CO2, the plate was washed with DPBS for three times to remove non-adherent cells for three times. Complete medium 180 μL and alarmar blue 20 μL was added to each well. The fluorescent intensity was read at excitation 530 nm and emission 590 nm using PerkinElmer Victor3 after 3 hours plate incubation.
The differentiation activity of compounds of Examples is compared to that of 100 μM erythromycin and the results are shown in FIG. 1 and Table 3.

[3] = tested on: Streptococcus pneumoniae ATCC 49619; test: Antibacterial activity, agar dilution MIC; conditions: ATCC49619, 20-24 hrs incubation, read-out: minimum inhibitory concentration MIC
Protocol: (§1) The antibacterial activity of Erythromycin and compounds of examples were evaluated by the agar dilution method, following the guidelines of the CLSI. […] Briefly, bacteria were grown overnight in adapted media (MHIIA with 5% of sheep blood for Streptococcus pneumoniae and Haemophilus influenzae, and MHIIA for the other bacteria strains) at 35° C., 5% CO2.
(§2) Cultures were centrifuged at 3000×g for 15 min. Pellets were diluted with 5 mls cold PBS and the OD600nm was adjusted to 10^8 CFU.mL^−1 with a spectrometer. Bacteria were then added to 96-well test plates. Compounds were diluted in DMSO in a 2 fold steps from 20 mg/ml in DMSO in 96 well plated and transferred to the test plate. During the incubation, the plate was maintained at 35° C., 5% CO2.
(§3) The MICs for Erythromycin and compounds of examples were determined after 20-24 hrs incubation.

[4] = tested on: Acinetobacter baumannii ATCC-BAA-1605; test: Antibacterial activity, agar dilution MIC; conditions: ATCCBAA1605, 20-24 hrs incubation, read-out: minimum inhibitory concentration MIC
Protocol: as §1, §2, §3

[5] = tested on: Staphylococcus aureus ATCC 29213; test: Antibacterial activity, agar dilution MIC; conditions: ATCC29213, 20-24 hrs incubation, read-out: minimum inhibitory concentration MIC
Protocol: as §1, §2, §3

[6] = tested on: Staphylococcus aureus NRS 384; test: Antibacterial activity, agar dilution MIC; conditions: NRS384, 20-24 hrs incubation, read-out: minimum inhibitory concentration MIC
Protocol: as §1, §2, §3

[7] = tested on: Streptococcus pyogenes ATCC BAA-572; test: Antibacterial activity, agar dilution MIC; conditions: ATCCBAA572, 20-24 hrs incubation, read-out: minimum inhibitory concentration MIC
Protocol: as §1, §2, §3

[8] = tested on: Haemophilus influenzae ATCC 49247; test: Antibacterial activity, agar dilution MIC; conditions: ATCC49247, 20-24 hrs incubation, read-out: minimum inhibitory concentration MIC
Protocol: as §1, §2, §3

[9] = tested on: Enterococcus faecalis ATCC 29212; test: Antibacterial activity, agar dilution MIC; conditions: ATCC29212, 20-24 hrs incubation, read-out: minimum inhibitory concentration MIC
Protocol: as §1, §2, §3

[10] = tested on: Streptococcus pneumoniae ATCC 6301; test: Antibacterial activity, agar dilution MIC; conditions: ATCC6301, 20-24 hrs incubation, read-out: minimum inhibitory concentration MIC
Protocol: as §1, §2, §3

[11] = tested on: Acinetobacter baumanii ATCC 17978; test: Antibacterial activity, agar dilution MIC; conditions: Acinetobacter baumannii, ATCC17978, 20-24 hrs incubation, read-out: minimum inhibitory concentration MIC
Protocol: as §1, §2, §3

[12] = tested on: Moraxella catarrhalis ATCC 43617; test: Antibacterial activity, agar dilution MIC; conditions: ATCC43617, 20-24 hrs incubation, read-out: minimum inhibitory concentration MIC
Protocol: as §1, §2, §3

THP-1 cell [13] = test: Cell viability (LD50) in THP-1 differentiation test; conditions: human
Protocol: The medium lethal dose (LD50) is the dosage of a compound that reduces the cell viability by 50%, and is determined using non-linear logistic regression.

| SMILES | LD10 (BEAS-2B cell) [µM] | Maximum Inhibition [1] [%] | IL-8 inhibitory activity compared with erythromycin ([1]; at 100 μM concentration, BEAS-2B) | IC10 [1] [µM] | EC50 (THP-1 cell [2]) [µM] | Emax (THP-1 cell [2]) [%] | MIC [3] [µg/mL] | MIC [4] [µg/mL] | MIC [5] [µg/mL] | MIC [6] [µg/mL] | MIC [7] [µg/mL] | MIC [8] [µg/mL] | MIC [9] [µg/mL] | MIC [10] [µg/mL] | MIC [11] [µg/mL] | MIC [12] [µg/mL] | LD50 (THP-1 cell [13]) [µM] |
| --- | --- | --- | --- | --- | --- | --- | --- | --- | --- | --- | --- | --- | --- | --- | --- | --- | --- |
| CC[C@H]1OC(=O)[C@H](C)[C@@H](OC2CC(C)(OC)C(O)C(C)O2)[C@H](C)[C@@H](OC2CC(N(C)C(C)=O)CC(C)O2)C(C)(O)C[C@@H](C)C(=O)[C@H](C)[C@@H](O)[C@]1(C)O (stereo in doubt) [LY101-22, N-((2S,4S,6R)-2-(((3R,4S,5S,6R,7R,9R,11R,12R,13S,14R)-14-ethyl-7,12,13-trihydroxy-4-(((2R,4R,5S,6S)-5-hydroxy-4-methoxy-4,6-dimethyltetrahydro-2H-pyran-2-yl)oxy)-3,5,7,9,11,13-hexamethyl-2,10-dioxooxacyclotetradecan-6-yl)oxy)-6-methyltetrahydro-2H-pyran-4-yl)-N-methylacetamide] | 100 | 33 | more potent inhibitory activity than erythromycin | 10 | 12.1 ± 2.7 | 790 ± 50 | > 128 | > 128 | > 128 | > 128 | > 128 | > 128 | > 128 | > 128 | > 128 | > 128 | 125 ± 7.1 |
| CC[C@H]1OC(=O)[C@H](C)[C@@H](OC2CC(C)(OC)C(O)C(C)O2)[C@H](C)[C@@H](OC2CC(N(C)C)CC(C)O2)[C@@](C)(O)C[C@@H](C)[C@H](O)[C@H](C)[C@@H](O)[C@]1(C)O (some centres unmarked) [LY101-45] | 15 | 40 |  | 1 | 1.5 ± 0.7 | 530 ± 60 | > 128 | > 128 | > 128 | > 128 | > 128 | > 128 | > 128 | > 128 | > 128 | > 128 | 24.2 ± 5.1 |
| CC[C@H]1OC(=O)[C@H](C)[C@@H](OC2CC(C)(OC)C(O)C(C)O2)[C@H](C)[C@@H](OC2CC(N(C)C)CC(C)O2)[C@@](C)(O)C[C@@H](C)/C(=N\OCOCCOC)[C@H](C)[C@@H](O)[C@]1(C)O (some centres unmarked) [LY101-39] | 100 | 35 |  | 20 | 10.1 ± 2.2 | 740 ± 80 | > 128 | > 128 | > 128 | > 128 | > 128 | > 128 | > 128 | > 128 | > 128 | > 128 | 90.0 ± 18.4 |
| CC[C@H]1OC(=O)[C@H](C)[C@@H](O[C@H]2C[C@@](C)(OC)[C@@H](O)[C@H](C)O2)[C@H](C)[C@@H](O[C@H]2C[C@@H](NC)C[C@@H](C)O2)[C@@](C)(O)C[C@@H](C)C(=O)[C@H](C)[C@@H](O)[C@]1(C)O [LY101-25, (3R,4S,5S,6R,9R,11R,12R,13S,14R)-14-ethyl-7,12,13-trihydroxy-4-(((2R,4R,5S,6S)-5-hydroxy-4-methoxy-4,6-dimethyltetrahydro-2H-pyran-2-yl)oxy)-3,5,7,9,11,13-hexamethyl-6-(((2S,4S,6R)-6-methyl-4-(methylamino)tetrahydro-2H-pyran-2-yl)oxy)oxacyclotetradecane-2,10-dione] | 15 | 53 |  | 1 | 1 ± 0.3 | 540 ± 110 | > 128 | > 128 | > 128 | > 128 | > 128 | > 128 | > 128 | > 128 | > 128 | > 128 | 21.1 ± 5.3 |
